Reference: ChEMBL document CHEMBL1201862, “PubChem BioAssay data set” (2004)
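Cultured in 96-well plates, cells were exposed to test compound for 48 hours across five concentrations. GI50 is the concentration that inhibits growth by half.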 The source made the active and inactive calls. No stated cut-off is given here; in the data, active = GI50 up to about 1.1 µM and inactive = higher.

Tests used:
Assay in all cases: NCI-60 cell line screen, 48 h
U-251 = tested on: U-251
SNB-75 = tested on: SNB-75
NCI-H23 = tested on: NCI-H23
KM12 = tested on: KM12
COLO 205 = tested on: COLO 205
SN12C = tested on: SN12C
SR = tested on: SR
HT-29 = tested on: HT-29
HCC 2998 = tested on: HCC 2998
SK-MEL-2 = tested on: SK-MEL-2
ACHN = tested on: ACHN
EKVX = tested on: EKVX
HOP-62 = tested on: HOP-62
SF-539 = tested on: SF-539
OVCAR-5 = tested on: OVCAR-5
MOLT-4 = tested on: MOLT-4
UACC-62 = tested on: UACC-62
OVCAR-4 = tested on: OVCAR-4
SK-MEL-5 = tested on: SK-MEL-5
LOX IMVI = tested on: LOX IMVI

SMILES | GI50 (U-251) | GI50 (SNB-75) | GI50 (NCI-H23) | GI50 (KM12) | GI50 (COLO 205) | GI50 (SN12C) | GI50 (SR) | GI50 (HT-29) | GI50 (HCC 2998) | GI50 (SK-MEL-2) | GI50 (ACHN) | GI50 (EKVX) | GI50 (HOP-62) | GI50 (SF-539) | GI50 (OVCAR-5) | GI50 (MOLT-4) | GI50 (UACC-62) | GI50 (OVCAR-4) | GI50 (SK-MEL-5) | GI50 (LOX IMVI)
CC(=O)N1CN2C(=O)CCC2c2ccccc21 (stereo unspecified) | > 100 µM (inactive) | > 100 µM (inactive) | > 100 µM (inactive) | > 100 µM (inactive) | > 100 µM (inactive) | > 100 µM (inactive) | 0.165 µM (active) | > 100 µM (inactive) | > 100 µM (inactive) | > 100 µM (inactive) | > 100 µM (inactive) | > 100 µM (inactive) | > 100 µM (inactive) | > 100 µM (inactive) | > 100 µM (inactive) | > 100 µM (inactive) | > 100 µM (inactive) | > 100 µM (inactive) | > 100 µM (inactive) | > 100 µM (inactive)
O=C(CC1Sc2ccccc2NC1=O)Nc1ccccc1[N+](=O)[O-] (stereo unspecified) | > 100 µM (inactive) | > 100 µM (inactive) | > 100 µM (inactive) | > 100 µM (inactive) | > 100 µM (inactive) | > 100 µM (inactive) | 12.2 µM (inactive) | > 100 µM (inactive) | > 100 µM (inactive) | > 100 µM (inactive) | > 100 µM (inactive) | > 100 µM (inactive) | > 100 µM (inactive) | > 100 µM (inactive) | > 100 µM (inactive) | 4.33 µM (inactive) | > 100 µM (inactive) | > 100 µM (inactive) | > 100 µM (inactive) | > 100 µM (inactive)
CC1(Cl)CC2C(CC1Sc1nnnn1-c1ccccc1)C2(C)C (stereo unspecified) | – | – | 64.3 µM (inactive) | 55.6 µM (inactive) | 83.8 µM (inactive) | > 100 µM (inactive) | 29.6 µM (inactive) | > 100 µM (inactive) | > 100 µM (inactive) | > 100 µM (inactive) | 75.5 µM (inactive) | 28.1 µM (inactive) | > 100 µM (inactive) | > 100 µM (inactive) | > 100 µM (inactive) | 30.1 µM (inactive) | 98.9 µM (inactive) | > 100 µM (inactive) | 58.2 µM (inactive) | > 100 µM (inactive)
COc1c(O)c(C=O)c2c(O)c(-c3c(C)cc4c(C(C)C)c(OC)c(O)c(C=O)c4c3O)c(C)cc2c1C(C)C [6,6'-METHOXYGOSSYPOL] | 3.2 µM (inactive) | 2.4 µM (inactive) | 3.61 µM (inactive) | 5.05 µM (inactive) | 1.89 µM (inactive) | 2.74 µM (inactive) | 4.4 µM (inactive) | 4.13 µM (inactive) | 2.65 µM (inactive) | 4.45 µM (inactive) | 2.43 µM (inactive) | 4.86 µM (inactive) | 2.98 µM (inactive) | 4.36 µM (inactive) | 7.08 µM (inactive) | 7.53 µM (inactive) | 11.9 µM (inactive) | 3.86 µM (inactive) | 9.23 µM (inactive) | –
COc1cccc(NC(=O)CC(=O)NN2C(=O)/C(=C/c3ccc(N(CCC#N)CCC#N)cc3)N=C2c2cc([N+](=O)[O-])ccc2Cl)c1 | 75.3 µM (inactive) | – | > 100 µM (inactive) | > 100 µM (inactive) | > 100 µM (inactive) | > 100 µM (inactive) | 22.4 µM (inactive) | – | 96.8 µM (inactive) | > 100 µM (inactive) | > 100 µM (inactive) | 56.1 µM (inactive) | > 100 µM (inactive) | > 100 µM (inactive) | 25.5 µM (inactive) | 3.53 µM (inactive) | 64.7 µM (inactive) | 99.1 µM (inactive) | 42.2 µM (inactive) | > 100 µM (inactive)
[N-]=[N+]=NC(c1cn(C2CC(O)C(CO)O2)c(=O)[nH]c1=O)C(Br)Br (stereo unspecified) | > 100 µM (inactive) | > 100 µM (inactive) | > 100 µM (inactive) | > 100 µM (inactive) | > 100 µM (inactive) | > 100 µM (inactive) | > 100 µM (inactive) | > 100 µM (inactive) | > 100 µM (inactive) | > 100 µM (inactive) | > 100 µM (inactive) | > 100 µM (inactive) | > 100 µM (inactive) | > 100 µM (inactive) | > 100 µM (inactive) | > 100 µM (inactive) | > 100 µM (inactive) | – | > 100 µM (inactive) | > 100 µM (inactive)
Cc1ccc(SSCCCCCS(=O)O)cc1 | 11 µM (inactive) | 29.6 µM (inactive) | 28.2 µM (inactive) | 36.1 µM (inactive) | – | 20.6 µM (inactive) | 4.62 µM (inactive) | 37.8 µM (inactive) | 46.7 µM (inactive) | 25.8 µM (inactive) | 57.7 µM (inactive) | 45.3 µM (inactive) | 29.9 µM (inactive) | 16.2 µM (inactive) | > 100 µM (inactive) | 6.34 µM (inactive) | 23.5 µM (inactive) | 40 µM (inactive) | – | 16.8 µM (inactive)
COc1ccccc1/C=C1\S/C(=N/Nc2nc(C)c(C(C)=O)s2)NC1=O | 33.7 µM (inactive) | 24.5 µM (inactive) | 42.1 µM (inactive) | 38 µM (inactive) | 22.9 µM (inactive) | 65.9 µM (inactive) | 31 µM (inactive) | 42.9 µM (inactive) | 94.6 µM (inactive) | 64.1 µM (inactive) | 49.1 µM (inactive) | – | 81.1 µM (inactive) | 44.1 µM (inactive) | 83 µM (inactive) | 35.6 µM (inactive) | 36.4 µM (inactive) | > 100 µM (inactive) | 19.7 µM (inactive) | 43.2 µM (inactive)
